In publication PMC9254439 (Virologica Sinica, 2022):
pKd: −log10 of the molar value. Where no end group is shown, it is not given here.

Assays:
[1] = target: SARS-CoV-2 spike trimer protein (Severe acute respiratory syndrome coronavirus 2, UniProt P0DTC2); test: biochemical; format: binding
[2] = target: SARS-CoV-2 spike monomer protein (Severe acute respiratory syndrome coronavirus 2, UniProt P0DTC2); test: biochemical; format: binding

NFWISPKLAFALGGGS [Spep-1]
pKd [1]: 8.77 | pKd [2]: 8.67
